According to patent EP4603105A1, “PHARMACEUTICAL COMPOSITION CONTAINING CYCLIC COMPOUND HAVING SELECTIVE KRAS INHIBITORY EFFECT AGAINST HRAS AND NRAS” (CHUGAI SEIYAKU KABUSHIKI KAISHA, priority 2022, dated 2024):
*1 amine or outer side, *2 acyl side, *3 side chain or, on linkers, in order; H or OH if unused. Where a SMILES comes first, the peptide text is derived from it. Bridges are numbered along the chain shown (N, C = ends). [ ]: non-standard residue; d: D form. The star is where a group is joined. hPhe(3-Cl-4-CF3) = N[C@@H](CCc1ccc(C(F)(F)F)c(Cl)c1)C(=O)O; NPrPhe(4-CF3) = CCCN[C@@H](Cc1ccc(C(F)(F)F)cc1)C(=O)O; X46 = C=CCCN([C@@H](Cc1ccc(C)cc1)C(=O)[*:2])[*:1]; Pro(4-spirocPr) = O=C(O)[C@@H]1CC2(CC2)CN1; NMeGly(cPent) = CN[C@H](C(=O)O)C1CCCC1; Hyp = O=C(O)[C@@H]1C[C@@H](O)CN1; NEtLeu = CCN[C@@H](CC(C)C)C(=O)O; NMeD = CN[C@@H](CC(=O)O)C(=O)O; NMeL = CN[C@@H](CC(C)C)C(=O)O; Morpholide = C1CN(*)CCO1; NMeA = CN[C@@H](C)C(=O)O; Ac5c = NC1(C(=O)O)CCCC1; Aze = O=C(O)[C@@H]1CCN1; Sar = CNCC(=O)O

Experiments:
[1] = tested on: human lung cancer strain NCI-H441; type: cell-based
Summary of the method: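 Signal came from […] measured per well once the reagent was added. Beforehand, cells were cultured at 37°C and 5% carbon dioxide on a compound series serially diluted in dimethyl sulfoxide.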

[2] = biological target: GDP-bound NRAS wild-type protein (Homo sapiens, UniProt P01111); assay: Binding to NRAS by surface plasmon resonance (SPR), KD and KD ratio to KRAS
Sequence of GDP-bound NRAS wild-type protein (P01111 whole entry): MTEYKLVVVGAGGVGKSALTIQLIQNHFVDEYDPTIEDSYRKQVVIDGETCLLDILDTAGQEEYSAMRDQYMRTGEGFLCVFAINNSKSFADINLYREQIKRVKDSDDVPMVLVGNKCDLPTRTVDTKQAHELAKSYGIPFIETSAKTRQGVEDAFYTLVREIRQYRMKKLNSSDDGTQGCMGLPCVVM
Summary of the method: (§1)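 Recombinant RAS proteins bearing a biotinylated Avi tag and loaded with GDP served as the captured ligand, recaptured fresh every cycle. Binding responses were referenced to an uncoated surface and a buffer-only blank cycle. Dissociation constants were obtained by 1:1 model fitting at 30°C.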

HRAS wild-type protein = HRAS wild-type protein (Homo sapiens, UniProt P01112); assay: Binding to HRAS by surface plasmon resonance (SPR), KD and KD ratio to KRAS
Sequence of HRAS wild-type protein (P01112 whole entry): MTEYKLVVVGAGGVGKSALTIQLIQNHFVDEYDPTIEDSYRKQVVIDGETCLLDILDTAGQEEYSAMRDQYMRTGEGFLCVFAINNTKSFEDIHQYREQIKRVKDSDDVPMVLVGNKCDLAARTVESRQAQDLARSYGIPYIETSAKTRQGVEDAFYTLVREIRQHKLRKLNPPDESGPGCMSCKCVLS
Summary of the method: as §1

[3] = ratio of the KD value with respect to GDP-bound NRAS wild-type protein to the KD value with respect to KRAS
[4] = ratio of the KD value with respect to HRAS wild-type protein to the KD value with respect to KRAS
[5] = ratio of KD for GDP-bound NRAS wild-type protein to KD for KRAS
[6] = ratio of KD for HRAS wild-type protein to KD for KRAS

SMILES	IC50 [1] [µM]	NRAS /KRAS [2, 3]	HRAS /KRAS (HRAS wild-type protein; [4])	NRAS /KRAS ([2]; ratio of KD value for GDP-bound NRAS wild-type protein to KD value for KRAS (SPR))	HRAS /KRAS (HRAS wild-type protein; ratio of KD value for HRAS wild-type protein to KD value for KRAS (SPR))	NRAS /KRAS [2, 5]	HRAS /KRAS (HRAS wild-type protein; [6])
CCO[C@@H]1C[C@H]2C(=O)NC3(CC(C)(C)C3)C(=O)N(C)[C@@H](C(CC)CC)C(=O)N(C)[C@H](C(=O)N(C)C)CC(=O)N(C)[C@@H](CC(C)C)C(=O)N[C@@H]([C@@H](C)CC)C(=O)N(C)CC(=O)N(C)[C@H]3C/C=C\CCN(C3=O)[C@@H](Cc3ccc(C(F)(F)F)cc3)C(=O)N(C)CC(=O)N[C@@H](CCc3ccc(C(F)(F)F)c(OC)c3)C(=O)N2C1 [PP2161]	0.0124	AA (a compound having 20 or more is denoted as AA)	A (a compound having 10 or more and less than 20 is denoted as A)				
CCC[C@H]1C(=O)N[C@@H]([C@@H](C)CC)C(=O)N(C)CC(=O)N(C)[C@H]2C/C=C\CCN(C2=O)[C@@H](Cc2ccc(C(F)(F)F)cc2)C(=O)N(C)CC(=O)N[C@@H](CCc2cc(F)c(Cl)c(F)c2)C(=O)N2C[C@H](OCC)C[C@H]2C(=O)NC2(CC(C)(C)C2)C(=O)N(C)[C@@H](C2CCCC2)C(=O)N(C)[C@H](C(=O)N(C)C)CC(=O)N1C [PP1758]	0.006			AA (a compound having 20 or more is denoted as AA)	A (a compound having 10 or more and less than 20 is denoted as A)		
C=CCCN1C(=O)CN(C)C(=O)CN(C)C(=O)[C@H]([C@@H](C)CC)NC(=O)[C@H](CC(C)C)N(C)C(=O)C[C@@H](C(=O)N2CCOCC2)N(C)C(=O)[C@H](C2CCCC2)N(C)C(=O)C2(CCCC2)NC(=O)[C@@H]2CCCN2C(=O)[C@H](CCc2ccc(C(F)(F)F)c(Cl)c2)NC(=O)CN(C)C(=O)[C@@H]1Cc1ccc(C)cc1 [PP0101] ([NMeL]I[Sar][Sar][X46][Sar][hPhe(3-Cl-4-CF3)]P[Ac5c][NMeGly(cPent)][NMeD]-Morpholide; lactam N-11)	0.0104					B (a compound having 3 or more and less than 10 is denoted as B)	C (A compound having a KD ratio of 0.1 or more and less than 3 is denoted as C)
CCCN1C(=O)[C@@H]2CCN2C(=O)CN(C)C(=O)[C@H]([C@@H](C)CC)NC(=O)[C@H](CC(C)C)N(C)C(=O)C[C@@H](C(=O)N2CCOCC2)NC(=O)[C@H](C2CCCC2)N(C)C(=O)C2(CCCC2)NC(=O)[C@@H]2C[C@@H](OCC)CN2C(=O)[C@H](CCc2ccc(C(F)(F)F)c(Cl)c2)NC(=O)CN(C)C(=O)[C@@H]1Cc1ccc(C(F)(F)F)cc1 [PP0353] ([NMeL]I[Sar][Aze][NPrPhe(4-CF3)][Sar][hPhe(3-Cl-4-CF3)][Hyp](Et)[Ac5c][NMeGly(cPent)]D-Morpholide; lactam N-11)	0.0467					C (A compound having a KD ratio of 0.1 or more and less than 3 is denoted as C)	B (a compound having 3 or more and less than 10 is denoted as B)
CCO[C@@H]1C[C@H]2C(=O)NC3(CCCC3)C(=O)N(C)[C@@H](C3CCCC3)C(=O)N(C)[C@H](C(=O)N(C)C)CC(=O)N(C)[C@@H](C)C(=O)N[C@@H]([C@@H](C)CC)C(=O)N(C)CC(=O)N(C)[C@H]3CCCCN(C3=O)[C@@H](Cc3ccc(C(F)(F)F)cc3)C(=O)N(C)CC(=O)N[C@@H](CCc3cc(F)c(C(F)(F)F)c(F)c3)C(=O)N2C1 [PP0586]	0.0053	C (A compound having a KD ratio of 0.1 or more and less than 3 is denoted as C)	B (a compound having 3 or more and less than 10 is denoted as B)				
CCCN1C(=O)CN(C)C(=O)CN(C)C(=O)[C@H]([C@@H](C)CC)NC(=O)[C@H](CC(C)C)N(C)C(=O)C[C@@H](C(=O)N2CCOCC2)N(C)C(=O)[C@H](C2CCCC2)N(C)C(=O)C2(CCCC2)NC(=O)[C@@H]2CC3(CC3)CN2C(=O)[C@H](CCc2ccc(C(F)(F)F)c(Cl)c2)NC(=O)CN(C)C(=O)[C@@H]1Cc1ccc(C(F)(F)F)cc1 [PP0261] ([NMeL]I[Sar][Sar][NPrPhe(4-CF3)][Sar][hPhe(3-Cl-4-CF3)][Pro(4-spirocPr)][Ac5c][NMeGly(cPent)][NMeD]-Morpholide; lactam N-11)	0.0046					B (a compound having 3 or more and less than 10 is denoted as B)	C (A compound having a KD ratio of 0.1 or more and less than 3 is denoted as C)
CCCN1C(=O)[C@@H]2CCN2C(=O)[C@H](C)N(C)C(=O)[C@H]([C@@H](C)CC)NC(=O)[C@H](CC(C)C)N(C)C(=O)C[C@@H](C(=O)N(C)C)NC(=O)[C@H](C2CCCC2)N(C)C(=O)C2(CCCC2)NC(=O)[C@@H]2C[C@@H](OCC)CN2C(=O)[C@H](CCc2ccc(C(F)(F)F)c(Cl)c2)NC(=O)CN(C)C(=O)[C@@H]1Cc1ccc(C(F)(F)F)cc1 [PP0383] ([NMeL]I[NMeA][Aze][NPrPhe(4-CF3)][Sar][hPhe(3-Cl-4-CF3)][Hyp](Et)[Ac5c][NMeGly(cPent)]D-NMe2; lactam N-11)	0.0026					C (A compound having a KD ratio of 0.1 or more and less than 3 is denoted as C)	B (a compound having 3 or more and less than 10 is denoted as B)
CCO[C@@H]1C[C@H]2C(=O)NC3(CC(C)(C)C3)C(=O)N(C)[C@@H](C(CC)CC)C(=O)N(C)[C@H](C(=O)N(C)C)CC(=O)N(C)[C@@H](CC3CCC3)C(=O)N[C@@H]([C@@H](C)CC)C(=O)N(C)CC(=O)N(C)[C@H]3C/C=C\CCN(C3=O)[C@@H](Cc3ccc(C)cc3)C(=O)N(C)CC(=O)N[C@@H](CCc3cc(F)c(C(F)(F)F)c(F)c3)C(=O)N2C1 [PP2151]	0.0233	A (a compound having 10 or more and less than 20 is denoted as A)	A (a compound having 10 or more and less than 20 is denoted as A)				
CC[C@H](C)[C@@H]1NC(=O)[C@H](CCOC)N(C)C(=O)C[C@@H](C(=O)N(C)CC)N(C)C(=O)[C@H](C2CCCC2)N(C)C(=O)C2(CC(C)(C)C2)NC(=O)[C@@H]2C[C@H](C)CN2C(=O)[C@H](CCc2ccc(C(F)(F)F)c(OC)c2)NC(=O)CN(C)C(=O)[C@H](Cc2ccc(C(F)(F)F)cc2)N2CC/C=C\C[C@@H](C2=O)N(C)C(=O)CN(C)C1=O [PP1999]	0.0266	A (a compound having 10 or more and less than 20 is denoted as A)	B (a compound having 3 or more and less than 10 is denoted as B)				
CCC[C@H]1C(=O)N[C@@H]([C@@H](C)CC)C(=O)N(C)CC(=O)N(C)[C@H]2C/C=C\CCN(C2=O)[C@@H](Cc2ccc(C(F)(F)F)cc2)C(=O)N(C)CC(=O)N[C@@H](CCc2cc(F)c(C(F)F)c(F)c2)C(=O)N2C[C@H](OCC)C[C@H]2C(=O)NC2(CC(C)(C)C2)C(=O)N(C)[C@@H](C2CCCC2)C(=O)N(C)[C@H](C(=O)N(C)C)CC(=O)N1C [PP2780]	0.0178					A (a compound having 10 or more and less than 20 is denoted as A)	A (a compound having 10 or more and less than 20 is denoted as A)
CCCN1C(=O)CN(C)C(=O)CNC(=O)[C@H]([C@@H](C)CC)NC(=O)[C@H](CC(C)C)N(CC)C(=O)C[C@@H](C(=O)N2CCOCC2)N(C)C(=O)[C@H](C2CCCC2)N(C)C(=O)C2(CCCC2)NC(=O)[C@@H]2CCCN2C(=O)[C@H](CCc2ccc(C(F)(F)F)c(Cl)c2)NC(=O)CN(C)C(=O)[C@@H]1Cc1ccc(C(F)(F)F)cc1 [PP1967] ([NEtLeu]IG[Sar][NPrPhe(4-CF3)][Sar][hPhe(3-Cl-4-CF3)]P[Ac5c][NMeGly(cPent)][NMeD]-Morpholide; lactam N-11)	0.0109	B (a compound having 3 or more and less than 10 is denoted as B)	B (a compound having 3 or more and less than 10 is denoted as B)				
